In one data set the test system is E. coli TY1 (DGL430). The experiment in a line: Effect of pHCA and pHS on growth and fermentation of E. coli, shake flasks. The data set is classed as cell-based. The following applies: E. coli TY1 shake flask. The method, then:
This study was done using E. coli TY1 (DGL430), a tyrosine overproducing strain obtained from OmniGene Bioproducts, Inc. (Cambridge, Mass.). This strain also produces phenylalanine. The seed culture of this strain was propagated in a medium consisting of MgSO4.7H2O (0.5 g/L), (NH4)2SO4 (4 g/L), MOPS (20.9 g/L) and 10 mL of phosphate solution. The pH of the seed medium was adjusted to pH 6.8 and then the medium was steam-sterilized. The phosphate solution contained KH2PO4 (57.3 g/L) and K2HPO4 (110.2 g/L) and was adjusted to pH 6.8. The following solutions were then aseptically added to the seed medium to give the final concentration given in parentheses: thiamine (1 mg/L), glucose (1 g/L), lactose (15 g/L), 5 mL of a trace element solution, and tetracycline (5 mg/L). The trace element solution contained citric acid (10 g/L), CaCl2.2H2O (1.5 g/L), FeSO4.7H2O (5 g/L), ZnSO4.7H2O (0.39 g/L) and CuSO4.5H2O (0.38 g/L). The seed medium was inoculated from a frozen pre-seed culture and was grown in 250 mL baffled flasks in an Innova 4000 incubator shaker (New Brunswick Scientific Co., Edison, N.J.), incubated at 35° C. and 300 rpm for 12–16 h. One milliliter of this seed culture was used to inoculate each of the test cultures.
The test medium was 50 mL of an aqueous solution containing: (NH4)2SO4 (4 g), 1 mL of phosphate solution, MgSO4.7H2O (0.5 g), and MOPS (20.9 g), with the pH adjusted to 7.0. After sterilization of this medium, thiamine (1 mg/L), 5 mL of trace element solution, glucose (2 g/L), lactose (15 g/L), IPTG (0.5 mM), and tetracycline (10 mg/L) were aseptically added to give the final concentration given in parentheses. The 250 mL baffled flasks containing 50 mL of the test medium were inoculated with the seed culture and were incubated at 35° C. and 300 rpm for 42 h in the incubator shaker. Samples of the culture were taken at various times and the optical density at 550 nm (OD550) was measured spectrophotometrically. The pH of these samples was also measured. After completion of the fermentation, the tyrosine and phenylalanine concentrations in the culture were measured using HPLC, as described supra.
This experiment was repeated using pHS in place of pHCA.

For data set [1], the system named is P. putida strain S12 (ATCC No. 700801). The data set is described as follows: Effect of pHS on the growth of Pseudomonas putida. The data set is classed as cell-based. The following applies: for Growth Rate, %: percentage of growth without pHS. The method, then: This study was done using P. putida strain S12 (ATCC No. 700801), obtained from the American Type Culture Collection. This P. putida strain was grown at 30° C. in 20 mL of LB medium containing 0.25% glucose and 10 mM MgSO4 in a 125 mL baffled flask until stationary phase was achieved. Aliquots from this stationary phase culture were plated on LB agar plates containing 0.25% glucose, 10 mM MgSO4, and 1 g/L pHS, and incubated at 30° C. for several days. Colonies from these plates were streaked on identical plates and grown as described above. An individual colony from these plates was used to inoculate 20 mL of liquid LB medium containing 0.5% glucose, 10 mM MgSO4 and 1 g/L pHS. This culture was grown in a 125 mL baffled flask at 30° C. and 200 rpm in an incubator shaker until stationary phase was achieved. These stationary phase cells (0.5 mL) were added to 20 mL of a test medium consisting of LB medium, 0.5% glucose, 10 mM MgSO4 and either 0, 1.0, or 1.25 g/L pHS. These cultures were grown in 125 mL baffled flasks at 30° C. and 200 rpm in an incubator shaker. Cell growth in these cultures was monitored by taking aliquots, diluting them with an equal volume of 1,2-propanediol, and measuring the OD at 600 nm. These OD measurements were used to calculate the doubling time and growth rate as a percentage of growth observed in the test medium without pHS.

Data set [2] is described as follows: Partition of pHS between 2-undecanone and aqueous medium, 10 L fermentor. The data set is classed as physicochemical. The following applies: 2-undecanone/aqueous. The method, then: The pre-seed culture was E. coli strain WWQ51.1, as described in Example 3, frozen in glycerol. This culture was used to inoculate 500 mL of the seed medium consisting of KH2PO4 (0.15 g/L), Na2HPO4 (0.35 g/L), (NH4)2SO4 (3 g/L), MgSO4.7H2O (0.3 g/L), yeast extract (0.5 g/L), and MOPS (15.7 g/L). The medium was adjusted to pH 6.8 and steam sterilized. Then, glucose (10 g/L), kanamycin (50 mg/L) and ampicillin (100 mg/L) were aseptically added to give the final concentration given in parentheses. The seed culture was inoculated and grown in a 2 L flask incubated at 35° C. and 300 rpm for 12 h in an incubator shaker.
The fermentor medium consisted of: 6.2 L of H2O, 1.4 g KH2PO4, 3.5 g MgSO4.7H2O, 7 g (NH4)2SO4, 7 mL of Mazu DF204 Defoamer, obtained from BASF Corp. (Mt. Olive, N.J.), 7 mg thiamine, and 3 L of 2-undecanone, obtained from Bedoukian Research, Inc. (Danbury, Conn.). After sterilization of the medium, 250 g of a 50% w/v glucose solution and 140 mL of the trace element solution (as described in Example 1), were aseptically added. The pH of the medium was adjusted to 6.5. The final total volume of the fermentation medium was 10 L.
The seed culture was used to inoculate the fermentor medium in a 14 L Braun Fermentor, Biostat C. B. (Braun Biotech International, Melesungen, Germany). The fermentation conditions were as follows: temperature: 35° C., stir rate: 400–600 rpm, airflow: 2–16 SLPM, DO2: 25%, and pressure: 1 bar. Glucose was fed into the fermentor starting at a rate of 0.28 g/min. This rate was reduced when the glucose concentration rose above 2 g/L. IPTG (8 mL of a 0.5 M solution) was added when the glucose concentration fell below 4 g/L.
Samples of the aqueous and organic phases were collected at various times. The glucose, pHCA, CA, phenylalanine, tyrosine, and pHS concentrations, and the OD550 in the aqueous phase were determined, as described supra. The pHS concentration in the organic phase was measured using HPLC, as described supra.

Results on one molecule are retold here after patent US7157256B2, “Method for producing para-hydroxystyrene and other multifunctional aromatic compounds using two-phase extractive fermentation” (E. I. du Pont de Nemours and Company, priority 2003, dated 2007).

Turning to `C=Cc1ccc(O)cc1` [pHS, para-hydroxystyrene], in the data set on E. coli TY1 (DGL430), the “concentration at which complete inhibition of growth / no growth was observed” value turned out to be 0.4 g/L. For the same molecule, in the data set with E. coli TY1 (DGL430), the “concentration that inhibited cell growth” value came out at 0.2 g/L. Moreover, the “Doubling Time” value in data set [1] (pHS 1.0 g/L, pHS-adapted cells, LB medium, 30° C.) stood at 118 min; in data set [1] (pHS 1.25 g/L), 111 min. Besides, the “Growth Rate, %” value turned out to be 85% in data set [1] (pHS 1.0 g/L) and 90% in data set [1] (pHS 1.25 g/L). Moreover, the Partition coeff. was 19 in data set [2] (13.5 h); 14 in data set [2] (15.9 h); 19 in data set [2] (18.3 h); 27 in data set [2] (20.2 h); 33 in data set [2] (23.3 h); 45 in data set [2] (25.5 h). Also, the Partition coeff. was 40 in data set [2] (27.3 h); 19 in data set [2] (33.6 h); 19 in data set [2] (36.8 h); 21 in data set [2] (39.3 h); 17 in data set [2] (57.1 h); 22 in data set [2] (59.4 h). The Partition coeff. in data set [2] (63.8 h) was 27.
